Assay results as given in paper PMC10096180, “Half-Sandwich Type Platinum-Group Metal Complexes of C-Glucosaminyl Azines: Synthesis and Antineoplastic and Antimicrobial Activities” (Molecules, 2023).

Tests used:
Test in all cases: SRB assay, 48 h
Type in all cases: cell-based
[1] = system: ID8 cells
Description: (§1) Figure 8 Assessment of free ligand 3a and complex Ru-3a for cytostatic activity in multiple carcinomas. […] Cells were treated with the compounds in the concentrations indicated for 48 h; then, an SRB assay was performed. Data are represented as average ± SD from three biological replicates; individual assays were performed in duplicates. Values were normalized for vehicle-treated cells; absorbance for vehicle-treated cells equals 1. Statistical significance was assessed using a one-way ANOVA test comparing all values to the lowest concentration of a compound. Before the test, normality was assessed using the Shapiro–Wilk test, and the post hoc test was chosen accordingly. […] An SRB assay measures protein content of cells in correlation with the cell number in an assay well and can therefore be used to assess cell proliferation or long-term cytostasis. Cells were seeded in 96-well plates the day before the assay. Cells were treated with the compounds for 48 h. Then medium was removed, and cells were fixed with 10% trichloroacetic acid. […] Stained cells were washed in 1% acetic acid 5 times; acetic acid was removed, and cells were left to dry. Protein-bound SRB was released by adding 100 μL 10 mM Tris base. Plates were measured in a plate photometer (Thermo Scientific Multiscan GO spectrophotometer, Waltham, MA, USA) at 540 nm. On each plate, wells were designed to contain vehicle-treated cells. […] Statistical analysis was performed using version 8.0.1 of GraphPad Prism. Values were tested for normal distribution using the Shapiro–Wilk normality test. […] In other cases, the percentage of inhibition was taken for the maximum concentration (100 μM).

[2] = system: MCF7 cells
Description: as §1

[3] = system: Capan2 cells
Description: as §1

[4] = system: U251 cells
Description: as §1

- IC50 [2]: 2.3 µM
- IC50 [4]: 3.97 µM
Compound: Cc1ccc(C(C)C)cc1.F[P-](F)(F)(F)(F)F.N[C@@H]1[C@@H](OCc2ccccc2)[C@H](OCc2ccccc2)[C@@H](COCc2ccccc2)O[C@H]1c1ccccn1.[Cl][Ru+] [Ru-3a]
- IC50 [1]: 2.54 µM
- ID8 SRB Max Inhibition [1]: >90%
- MCF7 SRB Max Inhibition [2]: >90%
- Capan2 SRB Max Inhibition [3]: >90%
- IC50 [3]: 2.25 µM
- U251 SRB Max Inhibition [4]: >90%
